# From US20080113032A1, “Scalp Desensitizing Formulation” (BMM PowerMoves, LLC, priority 2001, published 2008)
# Columns and labels:
# [1] = Recrystallization of benzocaine from the formulation after cooling to room temperature; format: physicochemical
# Description: The formulation is prepared by first mixing the topical anesthetic, solubilizer, homopolymers and copolymers together and heating the mixture at about 80° C. while stirring. The perfume oil, skin conditioning oils and water or a thickening agent, depending on the type of composition desired, can be added after dissolution of all of the above components being heated has occurred.
# This overall recrystallization problem is easily remedied by reheating the mixture either in a hot water bath or briefly in a microwave oven (<10 seconds). […] This is an improvement over the known art.
# The following components were dissolved by stirring while heating in a water bath at 80° C. All of the following protocols are actual experiments developed for the production of the formulation.
# After the above components were dissolved, the following components were added to the resulting solution while still heating.
# The solution was then cooled to room temperature.
# scalp or skin = assay: Desensitization of the scalp or skin, pain relief in hair treatment and manipulation procedures; format: in vivo; details: benzocaine concentration approximately 20 to 30 weight percent of the formulation
structure (smiles),measurement,setting,value
"CCOC(=O)c1ccc(N)cc1 [benzocaine, ethyl-p-aminobenzoate]",recrystallization,"[1]; about 20 weight percent benzocaine, after 24 hours",very small amount of recrystallization may be observed
same,benzocaine staying in solution,"[1]; about 20 weight percent benzocaine, formulation cooled to room temperature",stays in solution
same,re-solubility of the reheated mixture,"[1]; about 22 to about 30 weight percent benzocaine, reheated in hot water bath or microwave oven (<10 seconds)",Total re-solubility is achieved
same,precipitation in the mixture,"[1]; about 22 to about 30 weight percent benzocaine, several hours after cooling to room temperature",some precipitation is observed
same,relief of pain associated with hair treatment and manipulation procedures,scalp or skin,effective at relieving the pain
